Laboratory results from US9738682B2, “Compounds with a combined antioxidant activity against free radicals together with an anti-inflammatory action, and pharmaceutical and cosmetic compositions containing them for the treatment of skin and hair” (GIULIANI S.P.A., priority 2014, dated 2017).
Structures can show the parent of a compound that is named as a salt.

Legend:
[1] = system: human keratinocytes cell line NCTC2544; assay: MTT assay with induced oxidative stress (1 mM H2O2); format: cell-based; conditions: NCTC-2544, 0.5 μM compound, 16 h pre-treatment, then 1 mM H2O2 for 90 minutes, read-out: % viability (cell viability compared to not stressed control cells)
Description: In the intracellular environment, said formazan forms insoluble crystals to which the membranes are substantially impermeable: the molecule is therefore allowed to entry the cell, but not to exit it, if the molecule is correctly metabolized, i.e. if the electron transport chains are still metabolically active (that is equipped with an active reducing power).
This assay measures the viability of cells subjected to oxidative stress, and is therefore interpreted not only as an indicator of the antioxidant activity but also as an indicator of protection from oxidative stress and enhancement of cellular antioxidant defenses, in general terms being the test non-specific.
With the transformation of MTT, a change in color of the molecule from yellow to dark blue-violet is seen; therefore, to estimate the number of active mitochondria and, therefore, the number of viable cells in the sample, a colorimetric assay with a spectrophotometer read-out is used.
The protocol described below is used as a screening tool for the activity of the compounds of the invention object of the study, after induction of oxidative stress in the human keratinocytes cell line NCTC2544 through application of 1 mM hydrogen peroxide, according to a specific bibliographic reference (Rajapakse et al., 2004). The assay was conducted according to the method described by Coda and collaborators, with some modifications
The NCTC 2544 human keratinocytes were seeded in a 96-well plate at a density of 5*10^4 cells/well and incubated at 37° C. and 5% CO2, until reaching approximately 80% confluence.
The cells were then pretreated for 16 hours with the compounds of the invention to be tested in different concentrations, and with α-tocopherol, tested at the […] and 1 mM concentrations, as a reference. Cells treated with 1 mM H2O2 were used as negative control; however, cells maintained in culture in complete medium, served as the positive control.
At the end of the 16 hours of pre-treatment, the cells were washed with 1×PBS and incubated for 90 minutes with a 1 mM H2O2 solution (Sigma-Aldrich, St. Louis, Mo., USA) in serum-free medium at 37° C. and 5% CO2, in the dark.
Once the oxidative stress induction phase was completed, the evaluation of cell viability of the various samples was carried out, according to the method previously described (MTT assay).
The data were expressed as the percentage of cell viability compared to not stressed control cells (ctr), according to the following formula: % cell viability/ctr=(Abs sample/Abs ctr)*100
All analyzes were performed at least twice in duplicate.

[2] = system: TNF-α gene expression in NCTC 2544 human keratinocytes; assay: In vitro inflammation test: LPS-induced TNF-α gene expression by qRT-PCR; format: cell-based; conditions: 5 μM compound, LPS 5 μg/ml, 24 h, NCTC 2544 keratinocytes
Protocol: A immortalized line of NCTC 2544 human keratinocytes (Perry V. P. et al., 1957), kept in culture in sterile flasks ([…]), incubated at 37° C. in a humid atmosphere with 5% CO2 in MEM (Minimum Essential Medium) culture medium added with 10% fetal bovine serum (FBS), 2 mM glutamine, 1% non-essential amino acids, in the presence of 1% of penicillin and streptomycin, is used.
When the cells (NCTC 2544 human keratinocytes) reached approximately 80% confluence, they were detached with trypsin/EDTA and seeded at a density of 1×10^6 cells/ml in 12-well plates, and then incubated at 37° C., 5% CO2 (24 h). […]
The activity of the compounds under study on TNF-α gene expression was assessed by relative quantitative RT-PCR (quantitative reverse transcription-polymerase chain reaction-qRT-PCR). […]
With the use of a spectrophotometer (Jenway UV/VIS MOD: 6715, BS-6715B0), the μg/mL concentrations of the total RNA extracted were calculated, at a wavelength of 260 nm.
Finally, the RNA integrity (2 μg/mL) was evaluated by means of an electrophoretic run on 1% agarose gel.
The RNA extracted and quantified was diluted at a concentration of 2 μg/mL and reverse-transcribed into cDNA. […]

Row | Compound | viability at 0.5 µM [1] [%] | anti-inflammatory activity (TNF-α assay, FIG. 2) [2]
1 | C/C=C/C=C/C=C/C(=O)O [octatrienoic acid arginine salt, Octatrienoic acid arginine salt] | 91.5 | –
2 | CC=CC=CC=CC(=O)O [octatrienoic acid, 2,4,6-octatrienoic acid] | ~75 | –
3 | C/C=C/C=C/C=C/C(=O)Oc1cc(/C=C/c2ccc(O)cc2)cc(OC(=O)/C=C/C=C/C=C/C)c1 [resveratrol di-octatrienoate, Resveratrol 3,5-di-octatrienoate] | 120 | –
4 | Oc1ccc(C=Cc2cc(O)cc(O)c2)cc1 [resveratrol] | ~75 | proves not to have
